In patent US12195559B2, “CDCA1-derived peptide and vaccine containing same” (ONCOTHERAPY SCIENCE, INC., priority 2018, dated 2025):
Entries after “also recorded” stand apart in the source; their conditions may differ.

Tests used:
[1] = tested on: peptide-pulsed C1R-A01; test: IFN-gamma ELISA of CTL clones established by limiting dilution; format: cell-based, human; conditions: CTL clones against peptide-pulsed vs non-pulsed target cells
Experimental: CTLs were propagated using a method similar to that reported by Riddell et al. (Walter E A et al., N Engl J Med 1995, 333(16): 1038-44; Riddell S R et al., Nat Med 1996, 2(2): 216-23). In a flask for tissue culture (FALCON), the CTLs were cultured in 5% ABS/AIM-V medium (culture solution volume: 25 ml/flask) with two types of human B lymphoblastoid cell lines (5×10^6 cells each) treated with mitomycin C and anti-CD3 antibody (BD biosciences, final concentration: 40 ng/ml). On the next day after the culturing was started, IL-2 was added to the culture (IL-2 final concentration: 120 IU/ml). On days 5, 8, and 11, the medium was changed to 5% ABS/AIM-V medium containing 60 IU/ml IL-2 (IL-2 final concentration: 30 IU/ml) (Tanaka H et al., Br J Cancer 2001, 84(1): 94-9; Umano Y et al., Br J Cancer 2001, 84(8): 1052-7; Uchida N et al., Clin Cancer Res 2004, 10(24): 8577-86; Suda T et al., Cancer Sci 2006, 97(5): 411-9; Watanabe T et al., Cancer Sci 2005, 96(8): 498-506).
After CTLs were induced in vitro, the CTLs were seeded at 1 cell/well or 10 cells/well in a 96-well round-bottomed microplate (Corning). The CTLs were cultured in 5% ABS/AIM-V medium (culture solution volume: […]) with two types of human B lymphoblastoid cell lines (1×10^4 cells each) treated with mitomycin C, anti-CD3 antibody (final concentration: 30 ng/ml), and IL-2 (final concentration: 125 IU/ml). After 10 days, […] of 5% ABS/AIM-V medium containing 500 IU/ml IL-2 was added to the culture.
(§1) C1R-A01 pulsed with a peptide was prepared as target cells. The IFN-gamma ELISPOT assay and IFN-gamma ELISA were performed according to the procedures recommended by the assay kit manufacturer.

[2] = tested on: peptide-pulsed C1R-A01; test: In vitro CTL induction, IFN-gamma ELISPOT assay; format: cell-based, human; conditions: CD8-positive T cells from HLA-A*01:01-positive donors stimulated with DCs pulsed with 20 micro-g/ml peptide, target C1R-A01 pulsed vs not pulsed
Experimental: C1R cells (C1R-A01) that constitutively express HLA-A*01:01 was used as cells for stimulating CTLs. A cDNA encoding the HLA-A*01:01 gene was amplified by PCR and introduced into an expression vector. C1R cells incorporated with HLA-A*01:01 gene expression vector were cultured for two weeks under drug selection with a medium containing G418 (Invitrogen). After diluting G418-resistant C1R cell suspension, the cells were seeded into a 96-well plate, and subjected to selective culture for another 30 days with a medium containing G418. The HLA-A*01:01 expression in C1R cells was verified by flow cytometric analysis.
Monocyte-derived dendritic cells (DCs) were used as the antigen-presenting cell to induce a cytotoxic T lymphocyte (CTL) specific to peptides presented on human leukocyte antigens (HLAs). DCs were prepared in vitro as already reported in the literature (Nakahara S et al., Cancer Res 2003, 63(14): 4112-8). Specifically, peripheral-blood mononuclear cells (PBMCs) collected from healthy volunteers (HLA-A*01:01-positive) with the Ficoll-Paque plus solution (Pharmacia) were seeded into plastic tissue culture dishes (Corning) to allow attachment of monocytes in PBMCs to the dishes. Then, the cells were cultured in the presence of 1000 IU/ml granulocyte macrophage colony-stimulating factor (R&D System) and 1000 IU/ml interleukin (IL)-4 (R&D System) for seven days. As medium, an AIM-V medium (Invitrogen) containing inactivated AB type serum (MP Biomedicals) was used (2% ABS/AIM-V medium). […] Peptide pulsing was performed in the AIM-V medium. These peptide-pulsed DCs were inactivated by X-ray irradiation (20 Gy), and mixed in a 1:20 ratio with autologous CD8-positive T cells obtained by using the CD8 Positive Isolation Kit (Invitrogen) (1.5×10^4 DCs and 3×10^5 CD8-positive T cells), and cultured in a 48-well plate (Corning). The volume of 2% ABS/AIM-V medium was 0.5 ml per 1 well, and IL-7 (R&D System) was added (final concentration: 10 ng/ml) to the well. Two days after the start of culture, IL-2 (Novartis) was added thereto (final concentration: 20 IU/ml). On 7th day of culture and 14th day of culture, CD8-positive T cells were further stimulated with peptide-pulsed DCs. The DCs were prepared before use by the same method as above. On 21st day or thereafter (after the third DC stimulation), IFN-gamma production of CD8-positive T cells against peptide-pulsed C1R-A01 was confirmed by enzyme-linked immunospot (ELISPOT) assay (Tanaka H et al., Br J Cancer 2001, 84(1): 94-9; Umano Y et al., Br J Cancer 2001, 84(8): 1052-7; Uchida N et al., Clin Cancer Res 2004, 10(24): 8577-86; Suda T et al., Cancer Sci 2006, 97(5): 411-9; Watanabe T et al., Cancer Sci 2005, 96(8): 498-506).
as §1

[3] = tested on: COS7 cells expressing CDCA1 and HLA-A*01:01; test: IFN-gamma production of CTL clone against target cells expressing CDCA1 and HLA-A*01:01; format: cell-based, African green monkey
Experimental: as §1
The cDNA encoding the CDCA1 or HLA-A*01:01 gene were amplified by PCR. Each PCR amplified product was incorporated into an expression vector. Using Lipofectamine 2000 (Invitrogen), either or both of the CDCA1 gene expression vector and the HLA-A*01:01 gene expression vector were introduced into COS7 cells, an HLA-negative cell line, according to the procedure recommended by the manufacturer. On the next day of the gene introduction, the COS7 cells were separated using Versene (Invitrogen) and used as target cells.

Question: With “IYMRALQIVY (a peptide derived from CDCA1) [SEQ ID NO: 13, CDCA1-derived 10mer peptide, start position 48]” as the sequence, how does the “Peptide-specific IFN-gamma production of CTL clones” value ([1]; listed as CDCA1-A01-10-48) read?
Answer: The value was “showed peptide-specific IFN-gamma production”.

Question: And the “Peptide-specific IFN-gamma production (CTL induction)” value ([2]; listed as CDCA1-A01-10-48)?
Answer: The value was “Peptide-specific IFN-gamma production relative to the control well was observed; also recorded: able to induce CTLs that showed peptide-specific IFN-gamma production”.

Question: With “ARQEVVEKY (a peptide derived from CDCA1) [SEQ ID NO: 35, CDCA1-derived 9mer peptide, start position 268]” as the sequence, how does the “Peptide-specific IFN-gamma production (CTL induction)” value ([2]; listed as CDCA1-A01-9-268) read?
Answer: The value was “Peptide-specific IFN-gamma production relative to the control well was observed; also recorded: able to induce CTLs that showed peptide-specific IFN-gamma production”.

Question: “ETYMEFLWQY (a peptide derived from CDCA1) [SEQ ID NO: 8, CDCA1-derived 10mer peptide, start position 136]” was tested. Which “IFN-gamma production of CTL clone against target cells” value ([3]; COS7 cells expressing both CDCA1 and HLA-A*01:01) did it give?
Answer: The value was “showed IFN-gamma production”.

Question: What about the “IFN-gamma production of CTL clone against negative control cells” value ([3]; COS7 cells expressing either CDCA1 or HLA-A*01:01, listed as CDCA1-A01-10-136) of the same sequence?
Answer: The value was “no significant IFN-gamma production was observed; also recorded: did not show significant IFN-gamma production”.

Question: What about the “Peptide-specific IFN-gamma production of CTL clones” value ([1]; listed as CDCA1-A01-10-136) of the same sequence?
Answer: The value was “showed peptide-specific IFN-gamma production”.

Question: What about the “Peptide-specific IFN-gamma production (CTL induction)” value ([2]; listed as CDCA1-A01-10-136) of the same sequence?
Answer: The value was “Peptide-specific IFN-gamma production relative to the control well was observed; also recorded: able to induce CTLs that showed peptide-specific IFN-gamma production”.

Question: Which “Peptide-specific IFN-gamma production (CTL induction)” value ([2]; listed as CDCA1-A01-10-66) does the source give for “MMPVNSEVMY (a peptide derived from CDCA1) [SEQ ID NO: 9, CDCA1-derived 10mer peptide, start position 66]” here?
Answer: Its value is “No IFN-gamma production; also recorded: peptide-specific IFN-gamma production was not observed”.

Question: How did the “Peptide-specific IFN-gamma production (CTL induction)” value ([2]; listed as CDCA1-A01-9-288) turn out when “SCQLEVQLY (a peptide derived from CDCA1) [SEQ ID NO: 37, CDCA1-derived 9mer peptide, start position 288]” was run?
Answer: The value was “Peptide-specific IFN-gamma production relative to the control well was observed; also recorded: able to induce CTLs that showed peptide-specific IFN-gamma production”.

Question: “YMEFLWQY (a peptide derived from CDCA1) [SEQ ID NO: 1, CDCA1-derived 8mer peptide, start position 138]” was tested. Which “Peptide-specific IFN-gamma production (CTL induction)” value ([2]; listed as CDCA1-A01-8-138) did it give?
Answer: Its value is “Peptide-specific IFN-gamma production relative to the control well was observed; also recorded: able to induce CTLs that showed peptide-specific IFN-gamma production”.

Question: For “DSPEKLKNY (a peptide derived from CDCA1) [SEQ ID NO: 34, CDCA1-derived 9mer peptide, start position 246]”, which “Peptide-specific IFN-gamma production (CTL induction)” value ([2]; listed as CDCA1-A01-9-246) is on record?
Answer: Its value is “Peptide-specific IFN-gamma production relative to the control well was observed; also recorded: able to induce CTLs that showed peptide-specific IFN-gamma production”.

Question: For “FREACRETY (a peptide derived from CDCA1) [SEQ ID NO: 33, CDCA1-derived 9mer peptide, start position 130]”, which “Peptide-specific IFN-gamma production (CTL induction)” value ([2]; listed as CDCA1-A01-9-130) is on record?
Answer: Its value is “Peptide-specific IFN-gamma production relative to the control well was observed; also recorded: able to induce CTLs that showed peptide-specific IFN-gamma production”.

Question: “VYGIRLEHFY (a peptide derived from CDCA1) [SEQ ID NO: 10, CDCA1-derived 10mer peptide, start position 56]” was tested. Which “Peptide-specific IFN-gamma production of CTL clones” value ([1]; listed as CDCA1-A01-10-56) did it give?
Answer: Its value is “showed peptide-specific IFN-gamma production”.

Question: What about the “Peptide-specific IFN-gamma production (CTL induction)” value ([2]; listed as CDCA1-A01-10-56) of the same sequence?
Answer: The value was “Peptide-specific IFN-gamma production relative to the control well was observed; also recorded: able to induce CTLs that showed peptide-specific IFN-gamma production”.

Question: How did the “Peptide-specific IFN-gamma production (CTL induction)” value ([2]; listed as CDCA1-A01-9-290) turn out when “QLVQLYQK (QLEVQLYQK; a peptide derived from CDCA1) [SEQ ID NO: 25, CDCA1-derived 9mer peptide, start position 290]” was run?
Answer: Its value is “Peptide-specific IFN-gamma production relative to the control well was observed; also recorded: able to induce CTLs that showed peptide-specific IFN-gamma production”.
